In brackets after ≈: the same amount, converted by molar mass. Read-outs that look alike come from different tables or passages of the source. Square brackets hold non-standard residues; d marks the D form. Ends that are not written are not given here. Peptide text beside a SMILES is read from it. ξ: configuration not given here. ξαMeGly(pent-4-enyl) = C=CCCCC(C)(N)C(=O)O
Experiments:
E. coli ATCC 25922 = assay type: cell-based
Method: (§1) The minimum inhibitory concentration (MIC) of the Feleucin-K3 analogs was tested by the broth microdilution method. Sensitive bacteria and drug-resistant bacteria were diluted to 1 × 10^6 CFU/mL, according to the McFarland standards. Bacterial suspension and peptide solutions (8–128 μg/mL) were incubated at 37 °C for 18 h. The minimum concentration without obvious bacterial growth was the MIC of the peptides. The stability of the analogs in a physiological salt environment was also investigated. In brief, salt powder (450-mM NaCl) was dissolved in deionized water, and the following investigational steps were the same as those described before. The above steps were repeated several times, until the same value was obtained three times.

S. aureus ATCC 25923 = assay type: cell-based, Staphylococcus aureus
Method: as §1

P. aeruginosa ATCC 27853 = assay type: cell-based, Pseudomonas aeruginosa
Method: as §1

A. baumannii ATCC 19606 = assay type: cell-based, Acinetobacter baumannii
Method: as §1

MRSA 113 = assay type: cell-based, Staphylococcus aureus; settings: 113, 18 h
Method: as §1

MRSA 23 = assay type: cell-based, Staphylococcus aureus; settings: 23, 18 h
Method: as §1

MRSA 48 = assay type: cell-based, Staphylococcus aureus; settings: 48, 18 h
Method: as §1

MRSA 51 = assay type: cell-based, Staphylococcus aureus; settings: 51, 18 h
Method: as §1

MRSA 52 = assay type: cell-based, Staphylococcus aureus; settings: 52, 18 h
Method: as §1

MRSA 54 = assay type: cell-based, Staphylococcus aureus; settings: 54, 18 h
Method: as §1

MRSA 71 = assay type: cell-based, Staphylococcus aureus; settings: 71, 18 h
Method: as §1

MRSA 74 = assay type: cell-based, Staphylococcus aureus; settings: 74, 18 h
Method: as §1

MRSA 75 = assay type: cell-based, Staphylococcus aureus; settings: 75, 18 h
Method: as §1

MRSA 936 = assay type: cell-based, Staphylococcus aureus; settings: 936, 18 h
Method: as §1

MRSA ATCC 33591 = assay type: cell-based, Staphylococcus aureus; settings: ATCC 33591, 18 h
Method: as §1

S. aureus 725 = assay type: cell-based, Staphylococcus aureus; settings: 725, 18 h
Method: as §1

S. aureus 794 = assay type: cell-based, Staphylococcus aureus; settings: 794, 18 h
Method: as §1

A. baumannii 51243 = assay type: cell-based, Acinetobacter baumannii; settings: 51243, 18 h
Method: as §1

A. baumannii 5444 = assay type: cell-based, Acinetobacter baumannii; settings: 5444, 18 h
Method: as §1

A. baumannii 822144 = assay type: cell-based, Acinetobacter baumannii; settings: 822144, 18 h
Method: as §1

A. baumannii 8309 = assay type: cell-based, Acinetobacter baumannii; settings: 8309, 18 h
Method: as §1

A. baumannii 91105 = assay type: cell-based, Acinetobacter baumannii; settings: 91105, 18 h
Method: as §1

A. baumannii 91152 = assay type: cell-based, Acinetobacter baumannii; settings: 91152, 18 h
Method: as §1

A. baumannii 91199 = assay type: cell-based, Acinetobacter baumannii; settings: 91199, 18 h
Method: as §1

A. baumannii 91810 = assay type: cell-based, Acinetobacter baumannii; settings: 91810, 18 h
Method: as §1

A. baumannii 91869 = assay type: cell-based, Acinetobacter baumannii; settings: 91869, 18 h
Method: as §1

A. baumannii 91944 = assay type: cell-based, Acinetobacter baumannii; settings: 91944, 18 h
Method: as §1

A. baumannii 9234 = assay type: cell-based, Acinetobacter baumannii; settings: 9234, 18 h
Method: as §1

A. baumannii 92359 = assay type: cell-based, Acinetobacter baumannii; settings: 92359, 18 h
Method: as §1

A. baumannii 9236 = assay type: cell-based, Acinetobacter baumannii; settings: 9236, 18 h
Method: as §1

A. baumannii 9331 = assay type: cell-based, Acinetobacter baumannii; settings: 9331, 18 h
Method: as §1

A. baumannii 9336 = assay type: cell-based, Acinetobacter baumannii; settings: 9336, 18 h
Method: as §1

A. baumannii 97830 = assay type: cell-based, Acinetobacter baumannii; settings: 97830, 18 h
Method: as §1

A. baumannii 98110 = assay type: cell-based, Acinetobacter baumannii; settings: 98110, 18 h
Method: as §1

A. baumannii 9828 = assay type: cell-based, Acinetobacter baumannii; settings: 9828, 18 h
Method: as §1

A. baumannii 9840 = assay type: cell-based, Acinetobacter baumannii; settings: 9840, 18 h
Method: as §1

A. baumannii 9896 = assay type: cell-based, Acinetobacter baumannii; settings: 9896, 18 h
Method: as §1

[1] = broth microdilution, 1 × 10^6 CFU/mL, 37 °C, 18 h

| Molecule | MIC, E. coli ATCC 25922 (E. coli ATCC 25922; ATCC 25922, 18 h) [µg/mL] | MIC, S. aureus ATCC 25923 (S. aureus ATCC 25923; ATCC 25923, 18 h) [µg/mL] | MIC, P. aeruginosa ATCC 27853 (P. aeruginosa ATCC 27853; ATCC 27853, 18 h) [µg/mL] | MIC, A. baumannii ATCC 19606 (A. baumannii ATCC 19606; ATCC 19606, 18 h) [µg/mL] | MIC, MRSA 113 (MRSA 113) [µg/mL] | MIC, MRSA 23 (MRSA 23) [µg/mL] | MIC, MRSA 48 (MRSA 48) [µg/mL] | MIC, MRSA 51 (MRSA 51) [µg/mL] | MIC, MRSA 52 (MRSA 52) [µg/mL] | MIC, MRSA 54 (MRSA 54) [µg/mL] | MIC, MRSA 71 (MRSA 71) [µg/mL] | MIC, MRSA 74 (MRSA 74) [µg/mL] | MIC, MRSA 75 (MRSA 75) [µg/mL] | MIC, MRSA 936 (MRSA 936) [µg/mL] | MIC, MRSA ATCC 33591 (MRSA ATCC 33591) [µg/mL] | MIC, S. aureus 725 (S. aureus 725) [µg/mL] | MIC, S. aureus 794 (S. aureus 794) [µg/mL] | MIC, A. baumannii 51243 (A. baumannii 51243) [µg/mL] | MIC, A. baumannii 5444 (A. baumannii 5444) [µg/mL] | MIC, A. baumannii 822144 (A. baumannii 822144) [µg/mL] | other results |
| --- | --- | --- | --- | --- | --- | --- | --- | --- | --- | --- | --- | --- | --- | --- | --- | --- | --- | --- | --- | --- | --- |
| C=CCCCC(C)(NC(=O)[C@H](CCCCN)NC(=O)[C@@H](N)CC(C)C)C(=O)N[C@@H](CC(C)C)C(=O)N[C@@H](CCCCN)C(=O)N[C@@H](CCCCN)C(=O)N[C@@H](CC(C)C)C(=O)N[C@@H](CC(C)C)C(N)=O (stereo partly drawn) [Feleucin-K64] (H-LK[ξαMeGly(pent-4-enyl)]LKKLL-NH2) | 16 (≈ 16.1 µM) | 16 (≈ 16.1 µM) | 4 (≈ 4.03 µM) | 64 (≈ 64.4 µM) | – | – | – | – | – | – | – | – | – | – | – | – | – | – | – | – | – |
| C=CCCCC(C)(N)C(=O)N[C@@H](CC(C)C)C(=O)N[C@@H](CCCCN)C(=O)N[C@@H](C)C(=O)N[C@@H](CCCCN)C(=O)N[C@@H](CCCCN)C(=O)N[C@@H](CC(C)C)C(=O)N[C@@H](CC(C)C)C(N)=O (stereo partly drawn) [Feleucin-K66] (H-[ξαMeGly(pent-4-enyl)]LKAKKLL-NH2) | >128 | >128 | >128 | >128 | – | – | – | – | – | – | – | – | – | – | – | – | – | – | – | – | – |
| C=CCCCC(C)(NC(=O)[C@@H](N)Cc1ccccc1)C(=O)N[C@@H](CCCCN)C(=O)N[C@@H](CC(C)C)C(=O)N[C@@H](CC(C)C)C(=O)N[C@@H](CCCCN)C(=O)N[C@@H](CCCCN)C(=O)N[C@@H](CC(C)C)C(=O)N[C@@H](CC(C)C)C(N)=O (stereo partly drawn) [Feleucin-K67] (H-F[ξαMeGly(pent-4-enyl)]KLLKKLL-NH2) | 8 (≈ 7.01 µM) | 4 (≈ 3.51 µM) | 8 (≈ 7.01 µM) | 4 (≈ 3.51 µM) | 4 (≈ 3.51 µM) | 4 (≈ 3.51 µM) | 4 (≈ 3.51 µM) | 4 (≈ 3.51 µM) | 4 (≈ 3.51 µM) | 4 (≈ 3.51 µM) | 4 (≈ 3.51 µM) | 4 (≈ 3.51 µM) | 4 (≈ 3.51 µM) | 4 (≈ 3.51 µM) | 4 (≈ 3.51 µM) | 4 (≈ 3.51 µM) | 8 (≈ 7.01 µM) | 4 (≈ 3.51 µM) | 4 (≈ 3.51 µM) | 4 (≈ 3.51 µM) | MIC, A. baumannii 8309 (A. baumannii 8309): 4 µg/mL (≈ 3.51 µM); MIC, A. baumannii 91105 (A. baumannii 91105): 4 µg/mL (≈ 3.51 µM); MIC, A. baumannii 91152 (A. baumannii 91152): 4 µg/mL (≈ 3.51 µM); MIC, A. baumannii 91199 (A. baumannii 91199): 4 µg/mL (≈ 3.51 µM); MIC, A. baumannii 91810 (A. baumannii 91810): 4 µg/mL (≈ 3.51 µM); MIC, A. baumannii 91869 (A. baumannii 91869): 4 µg/mL (≈ 3.51 µM); MIC, A. baumannii 91944 (A. baumannii 91944): 4 µg/mL (≈ 3.51 µM); MIC, A. baumannii 9234 (A. baumannii 9234): 4 µg/mL (≈ 3.51 µM); MIC, A. baumannii 92359 (A. baumannii 92359): 4 µg/mL (≈ 3.51 µM); MIC, A. baumannii 9236 (A. baumannii 9236): 4 µg/mL (≈ 3.51 µM); MIC, A. baumannii 9331 (A. baumannii 9331): 8 µg/mL (≈ 7.01 µM); MIC, A. baumannii 9336 (A. baumannii 9336): 4 µg/mL (≈ 3.51 µM); MIC, A. baumannii 97830 (A. baumannii 97830): 4 µg/mL (≈ 3.51 µM); MIC, A. baumannii 98110 (A. baumannii 98110): 4 µg/mL (≈ 3.51 µM); MIC, A. baumannii 9828 (A. baumannii 9828): 4 µg/mL (≈ 3.51 µM); MIC, A. baumannii 9840 (A. baumannii 9840): 4 µg/mL (≈ 3.51 µM); MIC, A. baumannii 9896 (A. baumannii 9896): 4 µg/mL (≈ 3.51 µM) |
| C=CCCCC(C)(NC(=O)[C@H](CC(C)C)NC(=O)[C@H](CCCCN)NC(=O)[C@H](CC(C)C)NC(=O)[C@@H](N)Cc1ccccc1)C(=O)N[C@@H](CCCCN)C(=O)N[C@@H](CCCCN)C(=O)N[C@@H](CC(C)C)C(=O)N[C@@H](CC(C)C)C(N)=O (stereo partly drawn) [Feleucin-K68] (H-FLKL[ξαMeGly(pent-4-enyl)]KKLL-NH2) | 8 (≈ 7.01 µM) | 4 (≈ 3.51 µM) | 8 (≈ 7.01 µM) | 4 (≈ 3.51 µM) | 4 (≈ 3.51 µM) | 4 (≈ 3.51 µM) | 4 (≈ 3.51 µM) | 4 (≈ 3.51 µM) | 8 (≈ 7.01 µM) | 4 (≈ 3.51 µM) | 8 (≈ 7.01 µM) | 4 (≈ 3.51 µM) | 4 (≈ 3.51 µM) | 4 (≈ 3.51 µM) | 4 (≈ 3.51 µM) | 4 (≈ 3.51 µM) | 8 (≈ 7.01 µM) | 4 (≈ 3.51 µM) | 4 (≈ 3.51 µM) | 4 (≈ 3.51 µM) | MIC, A. baumannii 8309 (A. baumannii 8309): 4 µg/mL (≈ 3.51 µM); MIC, A. baumannii 91105 (A. baumannii 91105): 4 µg/mL (≈ 3.51 µM); MIC, A. baumannii 91152 (A. baumannii 91152): 4 µg/mL (≈ 3.51 µM); MIC, A. baumannii 91199 (A. baumannii 91199): 4 µg/mL (≈ 3.51 µM); MIC, A. baumannii 91810 (A. baumannii 91810): 4 µg/mL (≈ 3.51 µM); MIC, A. baumannii 91869 (A. baumannii 91869): 4 µg/mL (≈ 3.51 µM); MIC, A. baumannii 91944 (A. baumannii 91944): 4 µg/mL (≈ 3.51 µM); MIC, A. baumannii 9234 (A. baumannii 9234): 4 µg/mL (≈ 3.51 µM); MIC, A. baumannii 92359 (A. baumannii 92359): 4 µg/mL (≈ 3.51 µM); MIC, A. baumannii 9236 (A. baumannii 9236): 4 µg/mL (≈ 3.51 µM); MIC, A. baumannii 9331 (A. baumannii 9331): 8 µg/mL (≈ 7.01 µM); MIC, A. baumannii 9336 (A. baumannii 9336): 4 µg/mL (≈ 3.51 µM); MIC, A. baumannii 97830 (A. baumannii 97830): 4 µg/mL (≈ 3.51 µM); MIC, A. baumannii 98110 (A. baumannii 98110): 4 µg/mL (≈ 3.51 µM); MIC, A. baumannii 9828 (A. baumannii 9828): 4 µg/mL (≈ 3.51 µM); MIC, A. baumannii 9840 (A. baumannii 9840): 4 µg/mL (≈ 3.51 µM); MIC, A. baumannii 9896 (A. baumannii 9896): 4 µg/mL (≈ 3.51 µM) |
| GIGKFLHSAKKFGKAFVGEIMNS [Magainin 2, reference compound] | – | – | – | – | – | – | – | – | – | – | – | – | – | – | – | – | – | – | – | – | MIC, E. coli ATCC 25922 (E. coli ATCC 25922; [1]): 64 µg/mL; MIC, S. aureus ATCC 25923 (S. aureus ATCC 25923; [1]): > 256 µg/mL; MIC, P. aeruginosa ATCC 27853 (P. aeruginosa ATCC 27853; [1]): 256 µg/mL; MIC, A. baumannii ATCC 19606 (A. baumannii ATCC 19606; [1]): 16 µg/mL |
| LKLLKKLL-NH2 [Feleucin-K63] | >128 | >128 | 64 | >128 | – | – | – | – | – | – | – | – | – | – | – | – | – | – | – | – | – |
